Assay results as given in patent US20240335395A1, “COMPOSITIONS AND METHODS FOR PREVENTING AND/OR TREATING DISEASE ASSOCIATED WITH IL-23 EXPRESSION” (ALLSPIM, priority 2021, published 2024).

System: MSU-induced leukocyte recruitment
Experiment: MSU-induced leukocyte recruitment to the synovial cavity of knee joint
Assay type: in vivo, mouse
Conditions: 20 h; 2,4-D 100 mg/kg, CLC 1 mg/kg, DEX 0.5 mg/kg
Procedure: 2,4-D, isolated and purified from Chloranthus spicatus (purity≥98%), was purchased from BOC Science (Shirley, NY). Colchicine (CLC) (purity≥96%) and dexamethasone (DEX) (purity≥98%) were purchased from Sigma. Mice (six per group) were treated with 2,4-D (100 mg/kg or 20 mg/kg, i.p.), CLC (1 mg/kg or 0.2 mg/kg, i.p.), DEX (0.5 mg/kg or 0.1 mg/kg, i.p.), or vehicle (20% polyoxyethylenesorbitan monooleate (Tween 80) plus PBS) 30 min before intra-articular stimulus with MSU (100 μg/10 μL, i.a.). Six mice with intra-articular injection with PBS alone served as a negative control.
Induction of MSU-Induced Knee Joint Inflammation. Male ICR (CD-1) mice (35-45 g, 10-12 weeks) were purchased from VitalRiver Inc (Beijing, China) and were kept in an animal care facility under controlled temperature of 21±1° C., humidity, and on a light/dark cycle, with ad libitum access to water and standard laboratory chow diet. Animal care and handling procedures were approved by the Animal Ethics Committee of GZUCM (Guangzhou University of Chinese Medicine). All efforts were made to minimize animal suffering and to reduce the number of animals used. Joint inflammation was induced by the intra-articular (i.a.) administration of MSU (200 μg/20 μl) into the right and left knee joints of mice under inhaled 3% isoflurane anesthesia. Control animals received an injection (i.a.) of sterile PBS (20 μL).
Histopathological Analysis. Knee joint was collected 20 h after MSU injection, fixed with 10% paraformaldehyde in PBS, and then decalcified for 10 days with EDTA and embedded in paraffin for histological analysis. […] Results are expressed as leukocytes infiltrate (cell/field) counted at the inflammatory foci within synovial cavity as indicative of synovitis. […]
Statistical Analysis. Data were analyzed using GraphPad Prism statistical software (GraphPad Software, Inc., United States-500.288, version 5.0). Results are presented as means±SEM or SD of measurements made on 6 mice per group, with statistical significance determined by two-way ANOVA, comparing each group to the control (“Model”) group. […]

Question: How did the “reduction of MSU-induced leukocyte recruitment” value turn out when `COc1cc(O)c(OC)c(O)c1C(=O)/C=C/c1ccccc1` [2,4-D, 2′,4′-dihydroxy-3′,6′-dimethoxychalcone] was run?
Answer: 4.5 fold
